Laboratory results: a melting point compilation (Tetko et al.; mined from patent text by program, amines drawn as free bases though some values may be those of a salt)

Compound `COc1ccc(Cc2cc(=O)[nH]c3nc(OCc4ccccn4)ncc23)cc1Cl` has a melting point of 130 to 131 °C.
`O=C(c1cccs1)c1cnn2c(-c3cccc(NCc4ccco4)c3)ccnc12` showed a melting point of 124 to 128 °C.
`N#CCC(=O)c1cccc(Oc2ccccc2)c1` showed a melting point of 95 to 96 °C.
Work on `CN1CCN(c2n[nH]c(-c3ccc(Cl)cc3)c2-c2ccncc2)CC1` yielded a melting point of 262 to 264 °C.
In the case of `Cc1nc2c(N)nc3ccccc3c2n1CCOCCNC(=O)c1ccccc1`, the melting point was 210 to 212 °C.
In the case of `CON(C)C(=O)c1sc(SC)c2c1CCc1sc(-c3ccccc3)nc1-2`, the melting point was 157 to 158 °C.
In the case of `N#Cc1cccc(C2=NNCCC2n2cc(Cl)cn2)c1` (configuration not stated), the melting point was 171 °C.
In the case of `CCOC(=O)Cc1csc(-c2cc3cccc(NS(=O)(=O)c4cccs4)c3[nH]2)n1`, the melting point was 161 to 162 °C.
Compound `Cc1ncccc1CC(=NC#N)NC1CCCc2ccccc21` (configuration not stated) has a melting point of 193 to 194 °C.
For `COC(=O)Cc1cn(C(c2ccccc2)(c2ccccc2)c2ccccc2)cn1`, the melting point was 122 to 125 °C.
In the case of `CC(C)n1nc(-c2sc(C(N)=S)nc2-c2ccccc2)ccc1=O`, the melting point was greater than 250 °C.
`CCCCCCCCCCCCCCC1COC2(CC(c3ccccc3)N(O)C(c3ccccc3)C2)O1` (configuration not stated) showed a melting point of 98 to 100 °C.
In the case of `CC(C)CNc1c([N+](=O)[O-])cnc2cccnc12`, the melting point was 97 to 99 °C.
`CCOCc1nc2c(N)nc3ccccc3c2n1CC1CCN(C)C(=O)O1` (configuration not stated) gave a melting point of 192 to 194 °C.
In the case of `CC1=C(C(=O)OCCOc2ccccc2)C(c2ccccc2OC(F)F)c2c(ccnc2OC(C)C)N1` (configuration not stated), the melting point was 122 to 124 °C.
With `CC(C)(C)c1ccc(C(=O)N[C@H]2CC[C@H](CCN3CCC(c4cccc5c4CCO5)CC3)CC2)cc1` the melting point was 208 °C.
Compound `Cc1cc(O)ccc1-c1cc2cc(O)ccc2o1` has a melting point of 167 to 169 °C.
Compound `CCNC(=NC#N)NCc1cccnc1` has a melting point of 177 to 179 °C.
`Cc1cc(-n2ccnc2)c2cccc(OCc3c(Cl)ccc(S(=O)(=O)N4CCC[C@H]4C(=O)N(C)CCN(C)CCCO)c3Cl)c2n1` showed a melting point of 98 °C.
In the case of `CCCN1CC(C)C=C2c3cccc4c3C(CN4)CC21` (configuration not stated), the melting point was 135 to 137 °C.
`COCC(=O)N(C)c1cccc(OCc2ccccc2)c1[N+](=O)[O-]` gave a melting point of 111 to 112 °C.
Work on `CCOC(=O)c1cn2c3c(c(F)c(F)cc3c1=O)OCC2CI` (configuration not stated) yielded a melting point of 214 to 217 °C.
`CC(=O)Oc1ccc(N2CCN(C(C)=O)CC2)c(Br)c1` showed a melting point of 75 °C.
For `O=C(O)C(=O)Nc1c(-c2ccccc2)c(=O)[nH]c2cc(Cl)ccc12`, the melting point was 240 °C.
For `CCSCc1ccc(CC(N)C(=O)O)cc1` (racemic), the melting point was 251 °C.
`O=c1cnc(-c2ccc([N+](=O)[O-])cc2)c[nH]1` gave a melting point of 336 to 338 °C.
Work on `O=C1CC(CCc2ccccc2)Nc2ccccc2N1Cc1ccccc1` (configuration not stated) yielded a melting point of 135 to 137 °C.
Work on `CCCCCCCCCCCCc1ccc(CCC(N)(CO)CCO)cc1` (configuration not stated) yielded a melting point of 75 to 77 °C.
Compound `O=C(CCC1CCN(Cc2ccccc2)CC1)c1ccc(Nc2ncnc3c2CCC3O)cc1` (configuration not stated) has a melting point of 189 to 190 °C.
With `CC/C=C/Cn1c(Sc2cc(C)cc(C)c2)c(CC)c(=O)[nH]c1=O` the melting point was 129 to 130 °C.
For `O=C1CCc2cc(Cl)c([N+](=O)[O-])cc21`, the melting point was 110 to 113 °C.
Compound `COc1ccc(Oc2c([N+](=O)[O-])cc(C(=O)O)cc2S(N)(=O)=O)cc1` has a melting point of 229 to 230 °C.
Compound `Cc1ccc(N2C(=O)C=CC2=O)cc1N1C(=O)C=CC1=O` has a melting point of 168 to 172 °C.
Work on `S=C1Nc2ccccc2N2CCc3cccc1c32` yielded a melting point of 185 to 186 °C.
With `CC(CCC(=O)O)(c1ccc(OCc2ccc3ccc(Cl)cc3n2)cc1)c1ccc(OCc2ccc3ccc(Cl)cc3n2)cc1` the melting point was 88 to 90 °C.
`Clc1cc(N2CCNCC2)nc(N2CCCC2)n1` gave a melting point of 89 to 100 °C.
For `CCCC(=O)Nc1ccc(O)c(-c2ccno2)c1`, the melting point was 238 °C.
Compound `O=[N+]([O-])c1ccc(S(=O)(=O)N2CCN(c3ccc(F)cc3)CC2)cc1` has a melting point of 189 to 191 °C.
For `Cc1cc(N2C(=O)N(CCCCCN3C(=O)N(c4ccc(C#N)c(C)c4)C(=O)C3(C)C)C(C)(C)C2=O)ccc1C#N`, the melting point was 148 to 149 °C.
Compound `O=C(NCCCCc1ccccc1)OC1CCN(C(=O)OC2CCN(C(=O)Oc3ccc(Oc4ccccc4)cc3)CC2)CC1` has a melting point of 50 to 60 °C.
In the case of `CCN(c1nc(C)cc(C(=O)c2ccc(F)cc2)n1)c1ccc(C(C)C)cc1Br`, the melting point was 70 °C.
For `CCN1CN2C(=N1)C(c1ccccc1Cl)=NCC1=C2S(=O)CC1` (configuration not stated), the melting point was 199 to 200 °C.
With `COc1ccc(C)cc1NC(=O)Nc1ccc(N2CCN(C(=O)Oc3ccccc3)CC2)cc1` the melting point was 179 °C.
`CC1SC(C(=O)Nc2ccc(CN3CCOC3=O)cc2)Cc2cc3c(cc2C1=O)OCO3` (configuration not stated) showed a melting point of 231 to 233 °C.
Work on `Cc1cc(C(=O)N(C)C)ccc1-c1ccc(C(=O)Nc2ccc(Br)c(N3CCN(C)CC3)c2)cc1` yielded a melting point of 227 to 228 °C.
Compound `COC(=O)c1ccc(NC(=O)c2cc(C(C)C)c(C(C)C)o2)cc1O` has a melting point of 156 to 157 °C.
With `COC(=O)C(Cc1ccc(OCc2ccccc2)cc1)N1CC(N2C(=O)c3ccccc3C2=O)C1=O` (configuration not stated) the melting point was 147 to 148 °C.
For `CCCCCCCNC(=O)Oc1ccc2c(c1)CCCN2`, the melting point was 67 °C.
Work on `CS(=O)(=O)c1c(C#N)nn(-c2c(Cl)cc(C(F)(F)F)cc2Br)c1N` yielded a melting point of 235 to 238 °C.
With `Cc1oc(-c2ccccc2)nc1COc1ccc(/C=C/C(=O)C(=O)O)cc1` the melting point was 197 to 198 °C.
Compound `Cc1cccc(C=NN2CCN(C(c3ccccc3)c3ccccc3)CC2)n1` has a melting point of 130 to 132 °C.
With `O=C1C2=C(CCCC2)C(=O)C1=C1C=CNC=C1` the melting point was 258 to 261 °C.
In the case of `Oc1cccc(CCCn2ccnc2)c1`, the melting point was 110 to 111 °C.
In the case of `CC(=O)N1c2ccccc2-c2c([N+](=O)[O-])cnn2C1C` (configuration not stated), the melting point was 149 to 150 °C.
For `Nc1nc2ccccc2c2c1ncn2Cc1ccccc1`, the melting point was 257 to 259 °C.
With `CCCCCCCNC(=O)Nc1ccccc1C(=O)NC1CCN(CCSc2nc(-c3ccccc3)c(-c3ccccc3)[nH]2)CC1` the melting point was 160 to 161 °C.
`Cc1nc(C(=O)NCCN2CCOCC2)cc(-c2cccc([N+](=O)[O-])c2)c1C(C)O` (configuration not stated) showed a melting point of 166 to 167 °C.
`CNC(=O)N1CCC(c2nn(-c3ccc(F)cc3)c3ccccc23)CC1` gave a melting point of 113 to 115 °C.
For `O=C(O)COc1cc2ccsc2c(Cl)c1Cl`, the melting point was 166 to 167 °C.
In the case of `Cc1cc(-c2nc3c(C)ccnn3c2-c2ccnc(NC(=O)c3ccc(F)cc3)c2)ccc1F`, the melting point was 243 to 244 °C.
In the case of `Cn1ccc2c3c(c(I)cc21)C(=O)NC3=O`, the melting point was 322 to 325 °C.
With `CC(=O)N1CC(CCN2CC=CCC2c2ccc(C(F)(F)F)cc2)c2ccccc21` (configuration not stated) the melting point was 85 to 88 °C.
Compound `CCCCCCCCCOc1ncc(-c2ccc(O)cc2)cn1` has a melting point of 89 to 90 °C.
Compound `COC(=O)CCC(=O)c1ccc2c(c1)CC(CNC(C)=O)C2` (configuration not stated) has a melting point of 139 to 140 °C.
Compound `Cc1ccc2c(C(C)C(N)=O)ccc(C(C)C)cc1-2` (configuration not stated) has a melting point of 149 to 152 °C.
In the case of `Cc1ccc(Cl)c(NS(=O)(=O)C2(NC=O)N=CN=N2)c1Cl` (configuration not stated), the melting point was 275 to 279 °C.
With `Cc1cc(C(C)(C)C)c(O)c(C)c1COC(=O)c1cccc(C(=O)OCc2c(C)cc(C(C)(C)C)c(O)c2C)c1` the melting point was 155 to 156 °C.
Work on `CCC(CO)NCC(O)COc1ccccc1C#N` (configuration not stated) yielded a melting point of 106 to 108 °C.
Compound `COc1cc(C)c2[nH]ccc2c1C(N)(c1nc2cc(C#N)ccc2[nH]1)C(F)(F)F` (single isomer, unassigned; (-)) has a melting point of 255 °C.
Compound `O=C1OCCN1c1ccc2cc[nH]c2c1` has a melting point of 199 °C.
`C1=CSC(Sc2ccccc2)(c2ccc(Sc3ccccc3)s2)C1` (configuration not stated) showed a melting point of 110 to 112 °C.
Work on `CCc1cnc2c(NC(=O)c3c(Cl)cccc3Cl)cccc2c1/C=C/C(N)=O` yielded a melting point greater than 250 °C.
`Cc1ccccc1Nc1nc(N)nc2ccccc12` showed a melting point of 273 to 275 °C.
Work on `COC(=O)c1ccc(Cl)c2c1C=CCO2` yielded a melting point of 49 to 50 °C.
Compound `COc1ccc(Sc2[nH]c3cccc4c3c2CC2C4C=C(C)CN2C)cc1` (configuration not stated) has a melting point greater than 250 °C.
In the case of `CCOC(=O)C1=Cc2cc(Cl)cc(I)c2OC1C(F)(F)F` (configuration not stated), the melting point was 92.1 to 93.9 °C.
`O=C(O)c1c2n(c3cc(N4CCNCC4)c(F)cc3c1=O)C(c1ccccc1)S2` (configuration not stated) gave a melting point of 200 to 205 °C.
Compound `COC(=O)C1=C(C)NC(N)=C(C(=O)OC(C)C)C1c1ccccc1[N+](=O)[O-]` (configuration not stated) has a melting point of 203 °C.
For `O=C(O)Cn1cccc1Sc1ccccc1`, the melting point was 101 to 102 °C.
With `CC(C)(C)OC(=O)N1CCn2c(Cl)c(-c3cccc(C#N)c3)c(C(=O)O)c2C1` the melting point was 208 to 210 °C.
`CCC12C=C(C(=O)OC)n3c4c(c5ccccc53)CCN(CCC1)C42` (configuration not stated) showed a melting point of 160 to 162 °C.
In the case of `Cc1cc(C)c2c(c1)Cc1ccccc1S2(=O)=O`, the melting point was 103 to 105 °C.
With `Cn1c(-c2ccc(-c3ccccn3)cc2)c(C(=O)N2CCC(OCC(=O)O)CC2)c(=O)n1-c1ccc(C(=N)N)cc1` the melting point was 238 to 249 °C.
For `CC(=O)c1ccc(Cc2c(Cl)cc(N3N=CCNC3=O)cc2Cl)cc1`, the melting point was 189 to 190 °C.
`CC(=O)Nc1ccc(S(=O)(=O)c2cc(Br)nc(Br)c2)cc1` showed a melting point of 211 °C.
With `COCCOc1ccc(CCCNS(=O)(=O)CCCc2ccccc2)c(Oc2ncc(C(F)(F)F)cc2Cl)c1` the melting point was 102 °C.
Compound `CCC(C)(C)NC(=O)NC1=CC(=O)OC1` has a melting point of 169 to 171 °C.
With `CC(C)(O)C#Cc1nccs1` the melting point was 69 to 70 °C.
`Cc1ccc(S(=O)(=O)N2CCC[C@H]2C(=O)N[C@@H](Cc2ccc(NC(=S)NCCN3CCCCC3)cc2)C(=O)O)cc1` gave a melting point of 148 to 158 °C.
For `CCCCc1ccc2c(c1)Cc1cc(C(C)=O)ccc1-2`, the melting point was 102 to 104 °C.
Compound `CC(=O)Oc1cc(C(C)C)c(NC(=O)CN2CCN(CCSc3nc4ccccc4o3)CC2)c(C(C)C)c1` has a melting point of 126 to 129 °C.
In the case of `CC1(C)Oc2ccc(-c3c(N)c(=O)c3=O)cc2[C@@H](N2Cc3ccccc3C2=O)[C@@H]1O` (relative stereo), the melting point was greater than 250 °C.
With `Cn1c(Cc2cccc(C(F)(F)F)c2)nc2c(-c3cccc(C(=O)NCCC#N)c3)cccc21` the melting point was 168 to 169 °C.
`CN(Cc1ccc(S(C)=O)cc1)S(=O)(=O)c1cn(S(=O)(=O)N(C)C)c(C#N)n1` (configuration not stated) showed a melting point of 126 °C.
`COc1ccc(COc2ccccc2Br)cc1` gave a melting point of 87 to 90 °C.
Work on `CCOC(=O)CCc1cn(CC(=O)N(C)CCc2ccccc2)c2ccc(OCc3ccccc3)cc12` yielded a melting point of 81 to 83 °C.
Work on `OC1CSC(Oc2cncc(Cl)c2)C(O)C1O` (configuration not stated) yielded a melting point of 184 °C.
